The source made the active and inactive calls. No rule for the calls is given here.
Test system: CCRIS mutagenicity, Ames/micronucleus/aberration tests
Assay: CCRIS mutagenicity studies
[1] = Test System: AMES SALMONELLA TYPHIMURIUM, Strain/Indicator: TA98, Metabolic Activation: NONE, Method: PREINCUBATION
[2] = Test System: AMES SALMONELLA TYPHIMURIUM, Strain/Indicator: TA98, Metabolic Activation: NONE, Method: STANDARD PLATE
[3] = Test System: AMES SALMONELLA TYPHIMURIUM, Strain/Indicator: TA100, Metabolic Activation: NONE, Method: STANDARD PLATE

Cc1c(N(C)C)c(=O)n(-c2ccccc2)n1C
mutagenic call (Test System: AMES SALMONELLA TYPHIMURIUM, Strain/Indicator: TA97, Metabolic Activation: NONE, Method: STANDARD PLATE): inactive; negative | mutagenic call (Test System: AMES SALMONELLA TYPHIMURIUM, Strain/Indicator: TA97, Metabolic Activation: RAT, LIVER, S-9, AROCLOR 1254, Method: STANDARD PLATE): inactive; negative | mutagenic call (Test System: AMES SALMONELLA TYPHIMURIUM, Strain/Indicator: TA98, Metabolic Activation: GUINEA PIG, LIVER, S-9, PCB, Method: PREINCUBATION): inactive; negative | mutagenic call (Test System: AMES SALMONELLA TYPHIMURIUM, Strain/Indicator: TA98, Metabolic Activation: HAMSTER, LIVER, S-9, PCB, Method: PREINCUBATION): inactive; negative | mutagenic call (Test System: AMES SALMONELLA TYPHIMURIUM, Strain/Indicator: TA98, Metabolic Activation: MOUSE, LIVER, S-9, PCB, Method: PREINCUBATION): inactive; negative | mutagenic call [1]: inactive; negative | mutagenic call [2]: inactive; negative | mutagenic call (Test System: AMES SALMONELLA TYPHIMURIUM, Strain/Indicator: TA98, Metabolic Activation: RAT, LIVER, S-9, AROCLOR 1254, Method: STANDARD PLATE): inactive; negative | mutagenic call (Test System: AMES SALMONELLA TYPHIMURIUM, Strain/Indicator: TA98, Metabolic Activation: RAT, LIVER, S-9, PCB, Method: PREINCUBATION): inactive; negative | mutagenic call (Test System: AMES SALMONELLA TYPHIMURIUM, Strain/Indicator: TA100(FR1), Metabolic Activation: NONE, Method: STANDARD PLATE): inactive; negative | mutagenic call (Test System: AMES SALMONELLA TYPHIMURIUM, Strain/Indicator: TA100(FR1), Metabolic Activation: RAT, LIVER, S-9, PHENOBARBITAL AND 3-METHYLCHOLANTHRENE, Method: STANDARD PLATE): inactive; negative | mutagenic call (Test System: AMES SALMONELLA TYPHIMURIUM, Strain/Indicator: TA100, Metabolic Activation: GUINEA PIG, LIVER, S-9, PCB, Method: PREINCUBATION): inactive; negative | mutagenic call (Test System: AMES SALMONELLA TYPHIMURIUM, Strain/Indicator: TA100, Metabolic Activation: HAMSTER, LIVER, S-9, PCB, Method: PREINCUBATION): inactive; negative | mutagenic call (Test System: AMES SALMONELLA TYPHIMURIUM, Strain/Indicator: TA100, Metabolic Activation: MOUSE, LIVER, S-9, PCB, Method: PREINCUBATION): inactive; negative | mutagenic call (Test System: AMES SALMONELLA TYPHIMURIUM, Strain/Indicator: TA100, Metabolic Activation: NONE, Method: PREINCUBATION): inactive; negative | mutagenic call [3]: inactive; negative | mutagenic call (Test System: AMES SALMONELLA TYPHIMURIUM, Strain/Indicator: TA100, Metabolic Activation: RAT, LIVER, S-9, AROCLOR 1254, Method: STANDARD PLATE): inactive; negative | mutagenic call (Test System: AMES SALMONELLA TYPHIMURIUM, Strain/Indicator: TA100, Metabolic Activation: RAT, LIVER, S-9, PCB, Method: PREINCUBATION): inactive; negative | mutagenic call (Test System: AMES SALMONELLA TYPHIMURIUM, Strain/Indicator: TA100, Metabolic Activation: RAT, LIVER, S-9, PHENOBARBITAL AND 3-METHYLCHOLANTHRENE, Method: STANDARD PLATE): inactive; negative | mutagenic call (Test System: AMES SALMONELLA TYPHIMURIUM, Strain/Indicator: TA102, Metabolic Activation: NONE, Method: STANDARD PLATE): inactive; negative | mutagenic call (Test System: AMES SALMONELLA TYPHIMURIUM, Strain/Indicator: TA102, Metabolic Activation: RAT, LIVER, S-9, AROCLOR 1254, Method: STANDARD PLATE): inactive; negative | mutagenic call (Test System: AMES SALMONELLA TYPHIMURIUM, Strain/Indicator: TA104, Metabolic Activation: NONE, Method: STANDARD PLATE): inactive; negative | mutagenic call (Test System: AMES SALMONELLA TYPHIMURIUM, Strain/Indicator: TA104, Metabolic Activation: RAT, LIVER, S-9, AROCLOR 1254, Method: STANDARD PLATE): inactive; negative | mutagenic call (Test System: CHINESE HAMSTER V-79, Strain/Indicator: V-79/6-THIOGUANINE, Metabolic Activation: NONE): inactive; negative | mutagenic call (Test System: CHINESE HAMSTER V-79, Strain/Indicator: V-79/6-THIOGUANINE, Metabolic Activation: RAT, LIVER, HEPATOCYTES): inactive; negative | mutagenic call (Test System: CHINESE HAMSTER V-79, Strain/Indicator: V-79/OUABAIN, Metabolic Activation: NONE): inactive; negative | mutagenic call (Test System: CHINESE HAMSTER V-79, Strain/Indicator: V-79/OUABAIN, Metabolic Activation: RAT, LIVER, HEPATOCYTES): inactive; negative

CC1=C(C(=O)OCCN(Cc2ccccc2)c2ccccc2)C(c2cccc([N+](=O)[O-])c2)C(P2(=O)OCC(C)(C)CO2)=C(C)N1 (centres undefined)
mutagenic call (Test System: AMES SALMONELLA TYPHIMURIUM, Strain/Indicator: TA98, Metabolic Activation: NONE): inactive; negative | mutagenic call (Test System: AMES SALMONELLA TYPHIMURIUM, Strain/Indicator: TA98, Metabolic Activation: RAT, LIVER, S-9, PHENOBARBITAL AND 5,6-BENZOFLAVONE): inactive; negative | mutagenic call (Test System: AMES SALMONELLA TYPHIMURIUM, Strain/Indicator: TA100, Metabolic Activation: NONE): inactive; negative | mutagenic call (Test System: AMES SALMONELLA TYPHIMURIUM, Strain/Indicator: TA100, Metabolic Activation: RAT, LIVER, S-9, PHENOBARBITAL AND 5,6-BENZOFLAVONE): inactive; negative | mutagenic call (Test System: AMES SALMONELLA TYPHIMURIUM, Strain/Indicator: TA1535, Metabolic Activation: NONE): inactive; negative | mutagenic call (Test System: AMES SALMONELLA TYPHIMURIUM, Strain/Indicator: TA1535, Metabolic Activation: RAT, LIVER, S-9, PHENOBARBITAL AND 5,6-BENZOFLAVONE): inactive; negative | mutagenic call (Test System: AMES SALMONELLA TYPHIMURIUM, Strain/Indicator: TA1537, Metabolic Activation: NONE): inactive; negative | mutagenic call (Test System: AMES SALMONELLA TYPHIMURIUM, Strain/Indicator: TA1537, Metabolic Activation: RAT, LIVER, S-9, PHENOBARBITAL AND 5,6-BENZOFLAVONE): inactive; negative | mutagenic call (Test System: E.COLI, Strain/Indicator: WP2 UVRA, Metabolic Activation: NONE): inactive; negative

Cn1c(NS(=O)(=O)O)nc2c3nc(CO)cnc3ccc21
mutagenic call [1]: inactive; negative | mutagenic call (Test System: AMES SALMONELLA TYPHIMURIUM, Strain/Indicator: TA98, Metabolic Activation: RAT, LIVER, S-9, AROCLOR 1254, Method: PREINCUBATION): inactive; negative

O=[N+]([O-])c1ccc2c(c1)nc(/C=N/OCc1ccccc1[N+](=O)[O-])n2Cc1ccccc1
mutagenic call [2]: active; positive | mutagenic call (Test System: AMES SALMONELLA TYPHIMURIUM, Strain/Indicator: TA98, Metabolic Activation: RAT, LIVER, S-9, PHENOBARBITAL AND BETA-NAPHTHOFLAVONE, Method: STANDARD PLATE): active; positive | mutagenic call [3]: active; positive | mutagenic call (Test System: AMES SALMONELLA TYPHIMURIUM, Strain/Indicator: TA100, Metabolic Activation: RAT, LIVER, S-9, PHENOBARBITAL AND BETA-NAPHTHOFLAVONE, Method: STANDARD PLATE): active; positive

CC(C)CCCCCCOC(=O)c1ccccc1C(=O)OCCCCCCC(C)C
mutagenic call [2]: inactive; negative | mutagenic call (Test System: AMES SALMONELLA TYPHIMURIUM, Strain/Indicator: TA98, Metabolic Activation: RAT LIVER S-9, AROCLOR, Method: STANDARD PLATE): inactive; negative | mutagenic call [3]: inactive; negative | mutagenic call (Test System: AMES SALMONELLA TYPHIMURIUM, Strain/Indicator: TA100, Metabolic Activation: RAT LIVER S-9, AROCLOR, Method: STANDARD PLATE): inactive; negative | mutagenic call (Test System: AMES SALMONELLA TYPHIMURIUM, Strain/Indicator: TA1535, Metabolic Activation: NONE, Method: STANDARD PLATE): inactive; negative | mutagenic call (Test System: AMES SALMONELLA TYPHIMURIUM, Strain/Indicator: TA1535, Metabolic Activation: RAT LIVER S-9, AROCLOR, Method: STANDARD PLATE): inactive; negative | mutagenic call (Test System: AMES SALMONELLA TYPHIMURIUM, Strain/Indicator: TA1537, Metabolic Activation: NONE, Method: STANDARD PLATE): inactive; negative | mutagenic call (Test System: AMES SALMONELLA TYPHIMURIUM, Strain/Indicator: TA1537, Metabolic Activation: RAT LIVER S-9, AROCLOR, Method: STANDARD PLATE): inactive; negative | mutagenic call (Test System: AMES SALMONELLA TYPHIMURIUM, Strain/Indicator: TA1538, Metabolic Activation: NONE, Method: STANDARD PLATE): inactive; negative | mutagenic call (Test System: AMES SALMONELLA TYPHIMURIUM, Strain/Indicator: TA1538, Metabolic Activation: RAT LIVER S-9, AROCLOR, Method: STANDARD PLATE): inactive; negative

CCC[CH2][Sn]=[O]
mutagenic call (Test System: AMES SALMONELLA TYPHIMURIUM, Strain/Indicator: TA98, Metabolic Activation: NONE, Method: SUSPENSION/PLATE): inactive; negative | mutagenic call (Test System: AMES SALMONELLA TYPHIMURIUM, Strain/Indicator: TA100, Metabolic Activation: NONE, Method: SUSPENSION/PLATE): inactive; negative
